How the values were obtained:
Assay in all cases: relative viability (nuclei count vs DMSO), 5 days (fraction); higher = more cells survive
[1] = compound: CC[C@H](C)N1C=C(C2=C(C=C(C=C21)C3=CN=C(C=C3)N4CCNCC4)C(=O)NCC5=C(C=C(NC5=O)C)C)C [GSK126] + NC(=O)Nc1cc(-c2cccc(F)c2)sc1C(=O)N[C@H]1CCCNC1 [AZD7762] (partner 0.2 µM)
Outline: (§1)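 Each reported value is a median over duplicate plates. It expresses relative viability: treated-well nuclei count divided by vehicle-well nuclei count. Lung cancer cell lines in 1536-well plates were dosed by pin tool a day after seeding, alone with one drug or with a fixed anchor-drug dose plus five library-drug doses (not always all listed) in √10 steps, and nuclei were counted after 5 days.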

[2] = compound: C1CC(C1)(C(=O)O)C(=O)O.[NH2-].[NH2-].[Pt+2] [Carboplatin] + O=C(c1cc(Cc2n[nH]c(=O)c3ccccc23)ccc1F)N1CCN(C(=O)C2CC2)CC1 [Olaparib] (partner 8 µM)
Outline: as §1

[3] = compound: CC[C@H](C)N1C=C(C2=C(C=C(C=C21)C3=CN=C(C=C3)N4CCNCC4)C(=O)NCC5=C(C=C(NC5=O)C)C)C [GSK126] + Cc1nc(Nc2ncc(C(=O)Nc3c(C)cccc3Cl)s2)cc(N2CCN(CCO)CC2)n1 [Dasatinib] (partner 0.075 µM)
Outline: as §1

[4] = compound: CC[C@H](C)N1C=C(C2=C(C=C(C=C21)C3=CN=C(C=C3)N4CCNCC4)C(=O)NCC5=C(C=C(NC5=O)C)C)C [GSK126] + CS(=O)(=O)N1CCN(Cc2cc3nc(-c4cccc5[nH]ncc45)nc(N4CCOCC4)c3s2)CC1 [Pictilisib] (partner 1 µM)
Outline: as §1

What does the source list for 201T?
relative viability ([1]; first compound 0.08 µM): 0.704; relative viability ([1]; first compound 0.253 µM): 0.622; relative viability ([1]; first compound 0.8 µM): 0.617; relative viability ([1]; first compound 2.53 µM): 0.65; relative viability ([1]; first compound 8 µM): 0.567; relative viability ([2]; first compound 0.08 µM): 0.869; relative viability ([2]; first compound 0.253 µM): 0.836; relative viability ([2]; first compound 0.8 µM): 0.872; relative viability ([2]; first compound 2.53 µM): 0.822; relative viability ([2]; first compound 8 µM): 0.774; relative viability ([3]; first compound 0.08 µM): 0.558; relative viability ([3]; first compound 0.253 µM): 0.639; relative viability ([3]; first compound 0.8 µM): 0.61; relative viability ([3]; first compound 2.53 µM): 0.607; relative viability ([3]; first compound 8 µM): 0.519; relative viability ([4]; first compound 0.08 µM): 0.686; relative viability ([4]; first compound 0.253 µM): 0.8; relative viability ([4]; first compound 0.8 µM): 0.738; relative viability ([4]; first compound 2.53 µM): 0.691; relative viability ([4]; first compound 8 µM): 0.728

How did the relative viability ([2]; first compound 0.08 µM) turn out when A549 was run?
The relative viability was 0.332.

What about the relative viability ([2]; first compound 0.253 µM) of the same cell line?
Its relative viability is 0.388.

And the relative viability ([2]; first compound 0.8 µM)?
The relative viability was 0.314.

What about the relative viability ([2]; first compound 2.53 µM) of the same cell line?
The relative viability was 0.329.

And the relative viability ([2]; first compound 8 µM)?
Its relative viability is 0.174.

What about the relative viability ([4]; first compound 0.08 µM) of the same cell line?
Its relative viability is 0.506.

What about the relative viability ([4]; first compound 0.253 µM) of the same cell line?
The relative viability was 0.479.

What about the relative viability ([4]; first compound 0.8 µM) of the same cell line?
Its relative viability is 0.485.

What about the relative viability ([4]; first compound 2.53 µM) of the same cell line?
Its relative viability is 0.46.

And the relative viability ([4]; first compound 8 µM)?
The relative viability was 0.53.

A-427 was tested. Which relative viability ([1]; first compound 0.08 µM) did it give?
Its relative viability is 0.82.

What about the relative viability ([1]; first compound 0.253 µM) of the same cell line?
The relative viability was 0.703.

And the relative viability ([1]; first compound 0.8 µM)?
Its relative viability is 0.667.

What about the relative viability ([1]; first compound 2.53 µM) of the same cell line?
The relative viability was 0.825.

What about the relative viability ([1]; first compound 8 µM) of the same cell line?
Its relative viability is 0.542.

What about the relative viability ([2]; first compound 0.08 µM) of the same cell line?
The relative viability was 0.733.

What about the relative viability ([2]; first compound 0.253 µM) of the same cell line?
Its relative viability is 0.695.

And the relative viability ([2]; first compound 0.8 µM)?
Its relative viability is 0.88.

What about the relative viability ([2]; first compound 2.53 µM) of the same cell line?
Its relative viability is 0.648.

What about the relative viability ([2]; first compound 8 µM) of the same cell line?
The relative viability was 0.712.

And the relative viability ([3]; first compound 0.08 µM)?
Its relative viability is 0.76.

And the relative viability ([3]; first compound 0.253 µM)?
The relative viability was 0.638.

What about the relative viability ([3]; first compound 0.8 µM) of the same cell line?
The relative viability was 0.634.

And the relative viability ([3]; first compound 2.53 µM)?
The relative viability was 0.799.

What about the relative viability ([3]; first compound 8 µM) of the same cell line?
Its relative viability is 0.635.

And the relative viability ([4]; first compound 0.08 µM)?
Its relative viability is 0.855.

And the relative viability ([4]; first compound 0.253 µM)?
The relative viability was 0.786.

And the relative viability ([4]; first compound 0.8 µM)?
Its relative viability is 0.701.

What about the relative viability ([4]; first compound 2.53 µM) of the same cell line?
Its relative viability is 0.799.

And the relative viability ([4]; first compound 8 µM)?
The relative viability was 0.641.

What does the source list for ABC-1?
relative viability ([1]; first compound 0.08 µM): 0.587; relative viability ([1]; first compound 0.253 µM): 1.04; relative viability ([1]; first compound 0.8 µM): 0.95; relative viability ([1]; first compound 2.53 µM): 0.886; relative viability ([1]; first compound 8 µM): 0.916; relative viability ([2]; first compound 0.08 µM): 1.09; relative viability ([2]; first compound 0.253 µM): 0.759; relative viability ([2]; first compound 0.8 µM): 0.781; relative viability ([2]; first compound 2.53 µM): 0.654; relative viability ([2]; first compound 8 µM): 0.553; relative viability ([3]; first compound 0.08 µM): 0.591; relative viability ([3]; first compound 0.253 µM): 0.544; relative viability ([3]; first compound 0.8 µM): 0.678; relative viability ([3]; first compound 2.53 µM): 0.535; relative viability ([3]; first compound 8 µM): 0.45; relative viability ([4]; first compound 0.08 µM): 0.972; relative viability ([4]; first compound 0.253 µM): 1.03; relative viability ([4]; first compound 0.8 µM): 0.732; relative viability ([4]; first compound 2.53 µM): 0.858; relative viability ([4]; first compound 8 µM): 0.687

BEN was tested. Which relative viability ([1]; first compound 0.08 µM) did it give?
Its relative viability is 0.718.

And the relative viability ([1]; first compound 0.253 µM)?
The relative viability was 0.605.

What about the relative viability ([1]; first compound 0.8 µM) of the same cell line?
Its relative viability is 0.785.

And the relative viability ([1]; first compound 2.53 µM)?
The relative viability was 0.744.

And the relative viability ([1]; first compound 8 µM)?
Its relative viability is 0.612.

And the relative viability ([2]; first compound 0.08 µM)?
Its relative viability is 1.21.

What about the relative viability ([2]; first compound 0.253 µM) of the same cell line?
The relative viability was 1.12.

What about the relative viability ([2]; first compound 0.8 µM) of the same cell line?
Its relative viability is 1.11.

What about the relative viability ([2]; first compound 2.53 µM) of the same cell line?
The relative viability was 0.837.

What about the relative viability ([2]; first compound 8 µM) of the same cell line?
Its relative viability is 0.596.

And the relative viability ([3]; first compound 0.08 µM)?
The relative viability was 0.3.

And the relative viability ([3]; first compound 0.253 µM)?
Its relative viability is 0.31.

And the relative viability ([3]; first compound 0.8 µM)?
The relative viability was 0.295.

What about the relative viability ([3]; first compound 2.53 µM) of the same cell line?
Its relative viability is 0.309.

What about the relative viability ([3]; first compound 8 µM) of the same cell line?
The relative viability was 0.325.

What about the relative viability ([4]; first compound 0.08 µM) of the same cell line?
Its relative viability is 0.706.

And the relative viability ([4]; first compound 0.253 µM)?
Its relative viability is 0.569.

What about the relative viability ([4]; first compound 0.8 µM) of the same cell line?
The relative viability was 0.582.

And the relative viability ([4]; first compound 2.53 µM)?
Its relative viability is 0.541.

And the relative viability ([4]; first compound 8 µM)?
The relative viability was 0.438.

Which results are given for CAL-12T?
relative viability ([1]; first compound 0.08 µM): 0.751; relative viability ([1]; first compound 0.253 µM): 0.562; relative viability ([1]; first compound 0.8 µM): 0.622; relative viability ([1]; first compound 2.53 µM): 0.554; relative viability ([1]; first compound 8 µM): 0.589; relative viability ([2]; first compound 0.08 µM): 0.727; relative viability ([2]; first compound 0.253 µM): 0.783; relative viability ([2]; first compound 0.8 µM): 0.673; relative viability ([2]; first compound 2.53 µM): 0.741; relative viability ([2]; first compound 8 µM): 0.648; relative viability ([3]; first compound 0.08 µM): 0.582; relative viability ([3]; first compound 0.253 µM): 0.515; relative viability ([3]; first compound 0.8 µM): 0.531; relative viability ([3]; first compound 2.53 µM): 0.512; relative viability ([3]; first compound 8 µM): 0.45; relative viability ([4]; first compound 0.08 µM): 0.466; relative viability ([4]; first compound 0.253 µM): 0.499; relative viability ([4]; first compound 0.8 µM): 0.357; relative viability ([4]; first compound 2.53 µM): 0.596; relative viability ([4]; first compound 8 µM): 0.343

With COR-L23 as the cell line, how does the relative viability ([2]; first compound 0.08 µM) read?
The relative viability was 0.329.

And the relative viability ([2]; first compound 0.253 µM)?
Its relative viability is 0.3.

What about the relative viability ([2]; first compound 0.8 µM) of the same cell line?
The relative viability was 0.301.

And the relative viability ([2]; first compound 2.53 µM)?
The relative viability was 0.246.

What about the relative viability ([2]; first compound 8 µM) of the same cell line?
The relative viability was 0.157.

And the relative viability ([3]; first compound 0.08 µM)?
Its relative viability is 0.594.

What about the relative viability ([3]; first compound 0.253 µM) of the same cell line?
The relative viability was 0.488.

And the relative viability ([3]; first compound 0.8 µM)?
The relative viability was 0.488.

And the relative viability ([3]; first compound 2.53 µM)?
Its relative viability is 0.392.

What about the relative viability ([3]; first compound 8 µM) of the same cell line?
Its relative viability is 0.415.

What about the relative viability ([4]; first compound 0.08 µM) of the same cell line?
Its relative viability is 0.946.

And the relative viability ([4]; first compound 0.253 µM)?
Its relative viability is 0.735.

And the relative viability ([4]; first compound 0.8 µM)?
Its relative viability is 0.817.

What about the relative viability ([4]; first compound 2.53 µM) of the same cell line?
Its relative viability is 0.839.

What about the relative viability ([4]; first compound 8 µM) of the same cell line?
Its relative viability is 0.768.

What does the source list for COR-L 105?
relative viability ([2]; first compound 0.08 µM): 0.766; relative viability ([2]; first compound 0.253 µM): 0.756; relative viability ([2]; first compound 0.8 µM): 0.518; relative viability ([2]; first compound 2.53 µM): 0.544; relative viability ([2]; first compound 8 µM): 0.456; relative viability ([3]; first compound 0.08 µM): 0.356; relative viability ([3]; first compound 0.253 µM): 0.331; relative viability ([3]; first compound 0.8 µM): 0.342; relative viability ([3]; first compound 2.53 µM): 0.288; relative viability ([3]; first compound 8 µM): 0.398; relative viability ([4]; first compound 0.08 µM): 0.435; relative viability ([4]; first compound 0.253 µM): 0.406; relative viability ([4]; first compound 0.8 µM): 0.347; relative viability ([4]; first compound 2.53 µM): 0.389; relative viability ([4]; first compound 8 µM): 0.459

For Calu-6, which relative viability ([2]; first compound 0.08 µM) is on record?
The relative viability was 0.582.

What about the relative viability ([2]; first compound 0.253 µM) of the same cell line?
Its relative viability is 0.552.

And the relative viability ([2]; first compound 0.8 µM)?
The relative viability was 0.541.

And the relative viability ([2]; first compound 2.53 µM)?
Its relative viability is 0.475.

What about the relative viability ([2]; first compound 8 µM) of the same cell line?
Its relative viability is 0.298.

What about the relative viability ([4]; first compound 0.08 µM) of the same cell line?
Its relative viability is 1.03.

What about the relative viability ([4]; first compound 0.253 µM) of the same cell line?
The relative viability was 0.987.

And the relative viability ([4]; first compound 0.8 µM)?
The relative viability was 0.913.

What about the relative viability ([4]; first compound 2.53 µM) of the same cell line?
Its relative viability is 1.07.

And the relative viability ([4]; first compound 8 µM)?
Its relative viability is 0.967.

From the supplement of paper PMC10307832
